Values quoted from earlier work, collected in patent US20130053277A1 (priority 2010, published 2013).

Molecular target: influenza A virus M2 ion channel, S31N mutant (Influenza A virus, UniProt P0DOF5, S31N)
Conditions: cited from earlier work

NC12CC3CC(CC(C3)C1)C2 [amantadine, Amantadine]
isochronic apparent inhibitory binding constant: 200 JLM
